Laboratory results taken from US12653800B2, “Small molecule inhibitors of TLR2 signaling” (University of Maryland, Baltimore, priority 2015, dated 2026).

Experiments:
Solubility in water = format: physicochemical; settings: compared with C29
TLR2/1 [1] = biological target: TLR2/1 (Mus musculus, UniProt Q9QUN7); test: P3C-induced inflammation in vivo in C57BL/6J mice; parameters: tissue The Jackson Laboratory; host or cells: whole animal; liver RNA and serum analysed; settings: C29L i.p. 1.314 mM/g twice, P3C 100 μg i.p.
TLR2/1 (Mus musculus, UniProt Q9QUN7), sequence (Q9QUN7 25-784): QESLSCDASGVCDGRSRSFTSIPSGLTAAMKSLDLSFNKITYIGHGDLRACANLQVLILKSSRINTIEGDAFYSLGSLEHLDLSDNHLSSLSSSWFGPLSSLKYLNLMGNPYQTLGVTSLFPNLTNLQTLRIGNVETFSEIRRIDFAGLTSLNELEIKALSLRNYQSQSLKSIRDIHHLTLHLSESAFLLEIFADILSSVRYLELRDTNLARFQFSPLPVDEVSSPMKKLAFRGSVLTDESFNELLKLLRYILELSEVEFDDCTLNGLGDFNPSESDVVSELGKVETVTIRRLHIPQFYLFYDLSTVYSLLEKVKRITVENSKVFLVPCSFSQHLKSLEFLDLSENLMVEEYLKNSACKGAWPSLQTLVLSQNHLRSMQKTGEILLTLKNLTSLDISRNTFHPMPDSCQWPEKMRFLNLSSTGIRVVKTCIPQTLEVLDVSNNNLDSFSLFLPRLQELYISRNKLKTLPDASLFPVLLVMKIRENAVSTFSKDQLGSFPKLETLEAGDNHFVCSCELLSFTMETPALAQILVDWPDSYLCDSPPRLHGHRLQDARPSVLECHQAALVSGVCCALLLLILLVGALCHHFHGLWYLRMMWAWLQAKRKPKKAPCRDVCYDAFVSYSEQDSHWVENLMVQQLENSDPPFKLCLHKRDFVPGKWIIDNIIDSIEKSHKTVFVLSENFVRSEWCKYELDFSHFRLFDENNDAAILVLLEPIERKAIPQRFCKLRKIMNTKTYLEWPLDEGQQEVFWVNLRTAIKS
Method: FIG. 4. C29L inhibits TLR2/1-induced inflammation in vivo. C57BL/6J mice were pretreated i.p. with vehicle (water) or C29L (1.314 mM/g) for 1 hr. Mice received a second pretreatment i.p. with vehicle (water) or C29L (1.314 mM/g) and subsequently were challenged i.p. with PBS or P3C (100 μg) and sacrificed 1 hr or 3 hrs later. Liver RNA (A) was analyzed by qRT-PCR and serum concentrations (B) were analyzed by Multiplex (*, p≤0.05; ***, p≤0.001; ****, p≤0.0001). Panels A and B, n=6 (the combined data from two separate experiments) for each treatment group.
All animal studies were carried out with institutional approval. Female C57BL/6J mice (6-8 weeks old) were purchased from The Jackson Laboratory (Bar Harbor, ME) and (n=3 mice/group) received PBS, H2O, or C29L (in H2O) i.p. (1.314 mM/g). After 1 h, mice received a second injection of PBS, H2O, or C29L i.p. (1.314 mM/g) and were subsequently challenged i.p. with PBS or P3C (100 μg) for 1 or 3 h. Mice were bled and sera was prepared. Livers were also extracted for qRT-PCR analysis.

TLR2 [2] = biological target: TLR2 (Homo sapiens, UniProt O60603); format: cell-based; settings: HEK-TLR2 cells, C29 50 μM
TLR2 (Homo sapiens, UniProt O60603), sequence (O60603 21-784 limits assumed): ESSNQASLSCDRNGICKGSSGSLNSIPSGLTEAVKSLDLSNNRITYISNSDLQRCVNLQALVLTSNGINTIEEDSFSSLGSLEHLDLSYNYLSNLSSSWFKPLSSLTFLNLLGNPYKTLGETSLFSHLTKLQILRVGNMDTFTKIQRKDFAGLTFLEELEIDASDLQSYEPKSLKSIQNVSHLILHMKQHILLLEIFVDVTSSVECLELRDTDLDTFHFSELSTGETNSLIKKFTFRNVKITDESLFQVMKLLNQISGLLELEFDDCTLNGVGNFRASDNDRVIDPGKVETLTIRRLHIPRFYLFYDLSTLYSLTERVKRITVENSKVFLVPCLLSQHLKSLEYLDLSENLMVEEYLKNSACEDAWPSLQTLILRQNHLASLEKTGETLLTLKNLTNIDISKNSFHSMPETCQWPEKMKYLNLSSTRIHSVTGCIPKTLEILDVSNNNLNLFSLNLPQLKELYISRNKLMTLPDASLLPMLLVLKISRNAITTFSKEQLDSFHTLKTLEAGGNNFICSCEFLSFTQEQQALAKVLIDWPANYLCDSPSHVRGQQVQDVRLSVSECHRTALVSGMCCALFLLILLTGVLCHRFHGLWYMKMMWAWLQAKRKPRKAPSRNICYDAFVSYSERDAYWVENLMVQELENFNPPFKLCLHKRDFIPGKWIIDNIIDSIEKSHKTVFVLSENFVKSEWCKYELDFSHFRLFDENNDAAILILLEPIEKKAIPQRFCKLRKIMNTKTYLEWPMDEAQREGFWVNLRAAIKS

TLR2 [3] = biological target: TLR2 (Mus musculus, UniProt Q9QUN7); test: Cytokine mRNA in murine peritoneal macrophages (PEC) stimulated with bacterial TLR2 agonists; format: cell-based; settings: C29 50 μM
TLR2 (Mus musculus, UniProt Q9QUN7), sequence (Q9QUN7 25-784): as the sequence (Q9QUN7 25-784) above

[4] = Thin layer chromatography of C29 in NaOH or organic solvent (imine cleavage); format: physicochemical
Method: FIG. 11. C29 L reproduces the TLR2 inhibitory activity observed with C29. (A) C29 dissolved in NaOH generates ortho-vanillin (“C29L”) and 3-amino-2-methylbenzoic acid (“C29R”). (B) TLC plate coated with silica was spotted with C29 dissolved in 65 μM NaOH, C29 dissolved in ethyl acetate (organic solvent), and a mixture of both. The plate was placed in solvent and visualized using a KMnO4 stain. (C, D) Total RNA was extracted from murine peritoneal macrophages that had been pretreated for 1 hr with vehicle (65 μM NaOH), C29 (25 μM or 50 μM), C29L (25 μM or 50 μM), or C29R (25 μM or 50 μM) and then stimulated with P3C (50 ng/mL), P2C (100 ng/mL), or LPS (100 ng/mL) for 1 hr in the presence of vehicle, C29, C29L, or C29R. TNF-α mRNA was measured as described in FIG. 1, panel D. Quantitative real-time results are representative of 2 independent experiments each carried out in duplicate (*, p≤0.05; **, p≤0.01; ***, p≤0.001; ****, p≤0.0001).
To preclude cytotoxicity from DMSO, C29 was dissolved in 65 μM NaOH in H2O. […] The two cleavage products, C29L and C29R, were tested to determine if either would reproduce the TLR2 inhibitory activity of C29.

TLR2/6 = TLR2/6 (Homo sapiens, UniProt O60603); test: P2C-induced IL-8 mRNA (qRT-PCR) in HEK-TLR2 stable transfectants; format: cell-based; parameters: expressed in transfected cells
TLR2/6, sequence (O60603 21-784): as the sequence (O60603 21-784 limits assumed) above

TLR2/1 [5] = biological target: TLR2/1 (Homo sapiens, UniProt O60603); test: IL-1β mRNA in THP-1 cells stimulated with TLR2/1 agonists (P3C, S. aureus LTA); format: cell-based; parameters: expressed in transfected cells; settings: C29 50, 100 or 200 μM
TLR2/1 (Homo sapiens, UniProt O60603), sequence (O60603 21-784): as the sequence (O60603 21-784 limits assumed) above

[6] = murine macrophages, MOI=0.7, 4 hrs
[7] = primary murine macrophages (PEC), MOI=50, 4 hrs

Row | Compound | solubility in water (Solubility in water) | P3C-induced IL-12 p40 liver cytokine mRNA (TLR2/1 [1]; 1 or 3 hrs) | P3C-induced IL-12 p40 serum protein (TLR2/1 [1]; 1 or 3 hrs) | P3C-induced TNF-α liver cytokine mRNA (TLR2/1 [1]; 1 or 3 hrs) | P3C-induced TNF-α serum protein (TLR2/1 [1]; 1 or 3 hrs) | P3C-induced IL-12 p40 at the later time point (TLR2/1 [1]; 3 hrs) | live F. tularensis-induced IL-8 mRNA (TLR2 [2]; LVS MOI=10, 4 hrs, TLR2/6 agonist) | heat-killed Ps. aeruginosa (HKPA)-induced IL-8 mRNA (TLR2 [2]; MOI=50, 4 hrs) | heat-killed S. aureus (HKSA)-induced IL-8 mRNA (TLR2 [2]; MOI=50, 4 hrs) | live S. pneumoniae-induced IL-1β mRNA (TLR2 [3]; [6]) | live S. pneumoniae-induced IL-12 p40 mRNA (TLR2 [3]; [6]) | HKSA-mediated IL-1β mRNA (TLR2 [3]; [7]) | heat-killed S. pneumoniae (HKSP)-mediated IL-1β mRNA (TLR2 [3]; [7]) | stability of imine linkage (TLC) ([4]; dissolved in 65 μM NaOH in H2O) | stability of imine linkage (TLC) ([4]; dissolved in an organic solvent (ethyl acetate)) | inhibition at 100 µM (TLR2/6; 100 μM compound, 1 hr pretreatment, P2C 5 ng/mL 1 hr, HEK-TLR2 cells, read-out: decrease of P2C-induced IL-8 mRNA) [%] | P2C-induced IL-8 mRNA (TLR2/6; C29 10 μM or 50 μM, P2C 200 ng/mL 1 hr, HEK-TLR2 stable transfectants) | P3C-induced IL-1β gene expression (TLR2/1 [5]; P3C 50 ng/mL, 1 h and 4 h) | LTA SA-induced IL-1β mRNA (TLR2/1 [5]; S. aureus LTA 1 μg/mL 4 hrs)
1 | COc1cccc(C=O)c1O [Compound C29L, ortho-vanillin] | more soluble in water than C29 | significantly blocked | significantly blocked | significantly blocked | significantly blocked | significant inhibitory effect |  |  |  |  |  |  |  |  |  |  |  |  | 
2 | COc1cccc(/C=N/c2cccc(C(=O)O)c2C)c1O [Compound C29] |  |  |  |  |  |  | significantly inhibited | significantly inhibited | significantly inhibited | inhibited | inhibited | significantly blocked | significantly blocked | cleaved into these two species | not when dissolved in an organic solvent | ≥ 50 | blocked P3C- and P2C-induced IL-8 mRNA dose-dependently | inhibited P3C- and P2C-induced IL-1β gene expression significantly | blocked zymosan- and LTA SA-induced IL-1β mRNA dose-dependently
